Test results as given in patent US10307389B2, “Succinate prodrugs for use in the treatment of lactic acidosis or drug-induced side-effects due to Complex I-related impairment of mitochondrial oxidative phosphorylation” (NEUROVIVE PHARMACEUTICAL AB, priority 2014, dated 2019).
Entries after “also recorded” stand apart in the source; their conditions may differ.

How the values were obtained:
[1] = system: cells with inhibited respiratory complex I; assay: Screening assay 1: enhancement of mitochondrial energy producing function in cells with inhibited respiratory complex I; type: cell-based, human; parameters: key: (+): Brackets [( )] indicate an intermediate effect, i.e. (+++) is between ++ and +++; graded either +, ++ or +++ in increasing order of potency; (++): Brackets [( )] indicate an intermediate effect, i.e. (+++) is between ++ and +++; graded either +, ++ or +++ in increasing order of potency; (+++) is between ++ and +++; graded either +, ++ or +++ in increasing order of potency; settings: screening assay 1, complex I inhibited with rotenone 2 μM
Method: (§1) Measurement of mitochondrial respirationise performed in a high-resolution oxygraph (Oxygraph-2k, Oroboros Instruments, Innsbruck, Austria) at a constant temperature of 37° C. Isolated human platelets, white blood cells, fibroblasts, human heart muscle fibers or other cell types containing live mitochondria are suspended in a 2 mL glass chamber at a concentration sufficient to yield oxygen consumption in the medium of 10 pmol O2 s^−1 mL^−1.
Cells are placed in a buffer containing 110 mM sucrose, HEPES 20 mM, taurine 20 mM, K-lactobionate 60 mM, MgCl2 3 mM, KH2PO4 10 mM, EGTA 0.5 mM, BSA 1 g/l, pH 7.1. […] Compounds dissolved in DMSO are titrated in a range of 10 μM to 10 mM final concentration. Subsequently, cell membranes are permeabilised with digitonin (1 mg/1*10^6 plt) to allow entry of extracellularly released energy substrate or cell impermeable energy substrates. After stabilized respiration, Succinate 10 mM is added as a reference to enable respiration downstream of complex I. After the respiration stabilized the experiment is terminated by addition of Antimycin at final concentration 1 μg/mL and any residual non-mitochondrial oxygen consumption is measured. An increase in respiration rate in the described protocol is tightly coupled to ATP synthesis by oxidative phosphorylation unless cells are uncoupled (i.e. proton leak without production of ATP). Uncoupling is tested for by addition of the ATP synthase inhibitor oligomycin (1-2 μg mL^−1) in a protocol 3 where the extent of uncoupling corresponds to the respiratory rate following oligomycin addition.

[2] = system: intact human blood cells with inhibited complex I in human plasma; assay: Screening assay 4: cells with inhibited respiratory complex I in human plasma; type: cell-based; parameters: key: (+): Brackets [( )] indicate an intermediate effect, i.e. (+++) is between ++ and +++; graded either +, ++ or +++ in increasing order of potency; (++): Brackets [( )] indicate an intermediate effect, i.e. (+++) is between ++ and +++; graded either +, ++ or +++ in increasing order of potency; (+++) is between ++ and +++; graded either +, ++ or +++ in increasing order of potency; settings: screening assay 4, complex I inhibited
Method: Measurement of mitochondrial respirationise performed in a high-resolution oxygraph (Oxygraph-2k, Oroboros Instruments, Innsbruck, Austria) at a constant temperature of 37° C. […] Intact human blood cells are incubated in plasma from the same donor. […] The experiment is terminated by addition of Antimycin at final concentration 1 μg/mL and any residual non-mitochondrial oxygen consumption is measured.

intact cells [3] = assay: Screening assay 2: enhancement and inhibition of mitochondrial energy producing function in intact cells (FCCP); type: cell-based, human; parameters: key to Convergent (FCCP): increase in mitochondrial oxygen consumption: (+): Brackets [( )] indicate an intermediate effect, i.e. (+++) is between ++ and +++; graded either +, ++ or +++ in increasing order of potency; (++): Brackets [( )] indicate an intermediate effect, i.e. (+++) is between ++ and +++; graded either +, ++ or +++ in increasing order of potency; (+++) is between ++ and +++; graded either +, ++ or +++ in increasing order of potency; settings: for Toxicity: lowest concentration during compound titration at which a decrease in oxygen consumption is seen: screening assay 2; for Convergent (FCCP): increase in mitochondrial oxygen consumption: screening assay 2, uncoupled conditions
Method: as §1
In the second protocol the same buffer is used as described above. After basal respiration is established, the mitochondrial uncoupler FCCP is added at a concentration of 2 nM to increase metabolic demand.

intact cells [4] = assay: Screening assay 3: uncoupling in intact cells; on Uncoupling: level of oxygen consumption after addition of oligomycin: tested at 1000 µM; type: cell-based, human; parameters: key: (+): Brackets [( )] indicate an intermediate effect, i.e. (+++) is between ++ and +++; graded either +, ++ or +++ in increasing order of potency; (++): Brackets [( )] indicate an intermediate effect, i.e. (+++) is between ++ and +++; graded either +, ++ or +++ in increasing order of potency; (+++) is between ++ and +++; graded either +, ++ or +++ in increasing order of potency; settings: for Uncoupling: level of oxygen consumption after addition of oligomycin: screening assay 3; for Convergent (Routine): increase in mitochondrial oxygen consumption: screening assay 3, 1 mM compound
Method: Measurement of mitochondrial respirationise performed in a high-resolution oxygraph (Oxygraph-2k, Oroboros Instruments, Innsbruck, Austria) at a constant temperature of 37° C. […] In the third protocol, the same buffer as described above is used. […] Subsequently, the ATP-synthase-inhibitor Oligomycin is added. A reduction in respiration is a measure of how much of the oxygen consumption that is coupled to ATP synthesis. No, or only a slight, reduction indicate that the compound is inducing a proton leak over the inner mitochondrial membrane. The uncoupler FCCP is then titrated to induce maximum uncoupled respiration. […] The experiment is terminated by the addition of 1 μg/mL of the complex III inhibitor Antimycin to measure non-mitochondrial oxygen consumption.

intact human platelets = assay: Intervention on rotenone- or metformin-induced lactate production with cell-permeable succinate prodrugs; type: cell-based; settings: for effect on rotenone-induced lactate production: 2 μM rotenone, repeated additions of 250 μM; for effect on metformin-induced lactate production: 10 mM metformin, additions of 250 μM each 30 minutes
Method: Lactate levels are determined every 30 min using the Lactate Pro™ 2 blood lactate test meter (Arkray, Alere A B, Lidingö, Sweden) or similar types of measurements. Incubation is performed at 37° C. pH is measured at start, after 4 and after 8 h (or more frequently) of incubation using a Standard pH Meter, e.g. PHM210 (Radiometer, Copenhagen, Denmark). Drug candidates are added to the assay from start or following 30-60 min at concentrations within the range 10 μM-5 mM. […] In order to evaluate the specificity of the drug candidate, it is also tested in combination with a down-stream inhibitor of respiration such as the complex III inhibitor Antimycin at 1 μg/mL, which should abolish the effect of the drug candidate and restore the production of lactate.
Lactate levels were measured in intervals of 30 min with the onset of the experiment.

Compound	CII: increase in mitochondrial oxygen consumption [1]	CII (plasma): increase in mitochondrial oxygen consumption [2]	Toxicity: lowest concentration during compound titration at which a decrease in oxygen consumption is seen (intact cells [3]) [mM]	Convergent (FCCP): increase in mitochondrial oxygen consumption (intact cells [3])	Uncoupling: level of oxygen consumption after addition of oligomycin (intact cells [4])	Convergent (Routine): increase in mitochondrial oxygen consumption (intact cells [4])	effect on rotenone-induced lactate production (intact human platelets)	effect on metformin-induced lactate production (intact human platelets)
CCC(=O)N[C@@H](CSC(=O)CCC(=O)O)C(=O)O [Compound 01-041, (R)-4-(2-carboxy-2-propionamidoethylthio)-4-oxobutanoic acid]	++	+	5	+++	(+)	+		
CC(=O)NCCSC(=O)CCC(=O)O [Compound 01-108, 4-(2-acetamidoethylthio)-4-oxobutanoic acid]	(++)	(+)	10	++	+	++		
CCC(=O)NCCSC(=O)CCC(=O)O [Compound 01-114, 4-oxo-4-(2-propionamidoethylthio)butanoic acid]	++	+	10	++	(+)	+++		
CC(=O)OC(CCCOC(=O)CCC(=O)O)OC(=O)CCC(=O)O (centres unmarked) [Compound 01-134]	(+)	(+)	10	(+)	(+)	++		
CC(=O)OC(CCCN1C(=O)c2ccccc2C1=O)OC(=O)CCC(=O)O (centres unmarked) [Compound 01-150, 4-(1-acetoxy-4-(1,3-dioxoisoindolin-2-yl)butoxy)-4-oxobutanoic acid]	++	(+)	2	+	(+)	+++		
CCC(=O)N[C@@H](CSC(=O)CCC(=O)SC[C@H](NC(=O)CC)C(=O)N(CC)CC)C(=O)N(CC)CC [Compound 01-185, S,S-bis((R)-3-(diethylamino)-3-oxo-2-propionamidopropyl) butanebis(thioate)]	+	+	2	+	(+)	(+)		
CC(=O)NCC(C)(C)SC(=O)CCC(=O)O [Compound 01-188, 4-(1-acetamido-2-methylpropan-2-ylthio)-4-oxobutanoic acid]	+	+	5	+++	(+)	+++		
CCN(CC)C(=O)COCCSC(=O)CCC(=O)O [Compound 01-193, 4-(2-(2-(diethylamino)-2-oxoethoxy)ethylthio)-4-oxobutanoic acid]	+	(+)	5	+	+	(++)		
CCC(=O)N[C@@H](CSC(=O)CCC(=O)SC[C@H](NC(=O)CC)C(=O)OC)C(=O)OC [Compound 01-205, (R)-methyl 3-(4-((R)-3-methoxy-3-oxo-2-propionamidopropylthio)-4-oxobutanoylthio)-2-propionamidopropanoate]	++	+	5	++	(+)	+++		
CC(=O)OC(C)OC(=O)CCC(=O)OC(C)OC(C)=O (centres unmarked) [NV189, Succinic acid bis-(1-acetoxy-ethyl) ester]							attenuated; also recorded: brought back to normal	significantly decreased
CC(=O)OCOC(=O)CCC(=O)OC(C)OC(C)=O (centres unmarked) [NV241, Succinic acid 1-acetoxy-ethyl ester acetoxymethyl ester]							attenuated	significantly decreased
succinate [reference compound]								did not change this; also recorded: did not reduce
